Test results taken from ChEMBL document CHEMBL1151022, “Modified triphosphates of carbocyclic nucleoside analogues: Synthesis, stability towards alkaline phosphatase and substrate properties for some DNA polymerases” (Bioorg Med Chem Lett, 1996).

Experiment: Compound was evaluated for its stability to dephosphorylation.
Type: physicochemical

| Compound | half-life [h] |
| --- | --- |
| Nc1ncnc2c1ncn2[C@@H]1C[C@@H](OCP(=O)(O)OP(=O)(O)O)[C@@H]2C[C@@H]21 | 4.5 |
| Nc1ncnc2c1ncn2[C@@H]1C[C@@H](OCP(=O)(O)CP(=O)(O)O)[C@@H]2C[C@@H]21 | > 168 |
| Nc1ncnc2c1ncn2[C@H]1C[C@H](OCP(=O)(O)CP(=O)(O)O)[C@H]2C[C@H]21 | > 168 |
| Nc1ncnc2c1ncn2[C@@H]1C=C[C@H](OCP(=O)(O)OP(=O)(O)OP(=O)(O)O)C1 | 3 |
| Nc1nc(O)c2ncn([C@@H]3C=C[C@H](OCP(=O)(O)OP(=O)(O)OP(=O)(O)O)C3)c2n1 | 4 |
| Nc1ncnc2c1ncn2[C@H]1C=C[C@@H](OCP(=O)(O)OP(=O)(O)OP(=O)(O)O)C1 | 2 |
| Nc1nc2c(ncn2[C@H]2C[C@H](O)[C@@H](COP(=O)(O)OP(=O)(O)OP(=O)(O)O)O2)c(=O)[nH]1 [DEOXYGUANOSINE TRIPHOSPHATE] | 1 |
| Cc1cn([C@H]2C[C@H](N=[N+]=[N-])[C@@H](CO[P@](=O)(O)O[P@](=O)(O)OP(=O)(O)O)O2)c(=O)[nH]c1=O [ZIDOVUDINE TRIPHOSPHATE] | < 0.0167 |

The next lines start with the values.

| half-life [h] | Compound |
| --- | --- |
| > 168 | Nc1nc(O)c2ncn([C@@H]3C=C[C@H](OCP(=O)(O)OP(=O)(O)C(Br)(Br)P(=O)(O)O)C3)c2n1 |
| 0.833 | Nc1ncnc2c1ncn2[C@H]1C[C@H](O)[C@@H](COP(=O)(O)OP(=O)(O)OP(=O)(O)O)O1 |
| > 168 | Nc1ncnc2c1ncn2[C@H]1C[C@H](OCP(=O)(O)OP(=O)(O)O)[C@H]2C[C@H]21 |
| > 168 | Nc1ncnc2c1ncn2[C@@H]1C=C[C@H](OCP(=O)(O)OP(=O)(O)C(Br)(Br)P(=O)(O)O)C1 |
